ChEMBL document CHEMBL5038624, “Construction and activity evaluation of novel dual-target (SE/CYP51) anti-fungal agents containing amide naphthyl structure” (Eur J Med Chem, 2022)
Converted amounts (≈) assume the structure as drawn.

How the values were obtained:
Candida albicans [1] = test: Antifungal activity against Candida albicans SC5314 assessed as reduction in fungal growth incubated for 72 hrs by CLSI protocol based broth microdilution method; format: functional
Aspergillus fumigatus = test: Antifungal activity against Aspergillus fumigatus KM8001 assessed as reduction in fungal growth incubated for 72 hrs by CLSI protocol based broth microdilution method; format: functional
Candida tropicalis = test: Antifungal activity against Candida tropicalis ATCC 1369 assessed as reduction in fungal growth incubated for 72 hrs by CLSI protocol based broth microdilution method; format: functional
Pichia kudriavzevii = test: Antifungal activity against Candida krusei ATCC 6258 assessed as reduction in fungal growth incubated for 72 hrs by CLSI protocol based broth microdilution method; format: functional
Nakaseomyces glabratus = test: Antifungal activity against Candida glabrata ATCC 0001 assessed as reduction in fungal growth incubated for 72 hrs by CLSI protocol based broth microdilution method; format: functional
Candida albicans [2] = test: Antifungal activity against Candida albicans strain 17 assessed as reduction in fungal growth incubated for 72 hrs by CLSI protocol based broth microdilution method; format: functional
Candida albicans [3] = test: Induction of apoptosis against Candida albicans ATCC SC5314 assessed as mild apoptotic cells measured after 48 hrs by Annexin V-FITC/propidium iodide staining based flow cytometry (Rvb =0.29 %); format: functional
Candida albicans [4] = test: Antifungal activity against Candida albicans strain CaR assessed as reduction in fungal growth incubated for 72 hrs by CLSI protocol based broth microdilution method; format: functional
Candida albicans [5] = test: Inhibition of SE/CYP51 in Candida albicans ATCC SC5314 assessed as eburicol level incubated for 48 hrs by LC/MS analysis; set-up: scale not given: the % may be the effect or the level left
Candida albicans [6] = test: Inhibition of SE/CYP51 in Candida albicans ATCC SC5314 assessed as ergosterol level incubated for 48 hrs by LC/MS analysis; set-up: scale not given: the % may be the effect or the level left
Candida albicans [7] = test: Antifungal activity against Candida albicans strain 632 assessed as reduction in fungal growth incubated for 72 hrs by CLSI protocol based broth microdilution method; format: functional
[8] = target: Lanosterol 14-alpha demethylase (Candida albicans (strain SC5314 / ATCC MYA-2876) (Yeast), UniProt P10613); test: Inhibition of CYP51 in Candida albicans ATCC SC5314 measured after 30 mins by HPLC analysis
Candida albicans [9] = test: Inhibition of SE/CYP51 in Candida albicans ATCC SC5314 assessed as squalene level incubated for 48 hrs by LC/MS analysis; set-up: scale not given: the % may be the effect or the level left
Candida albicans [10] = test: Antifungal activity against Candida albicans strain 904 assessed as reduction in fungal growth incubated for 72 hrs by CLSI protocol based broth microdilution method; format: functional
Candida albicans [11] = test: Induction of apoptosis against Candida albicans ATCC SC5314 assessed as necrotic cells measured after 48 hrs by Annexin V-FITC/propidium iodide staining based flow cytometry (reference value: 18.22 %); format: functional
Candida albicans [12] = test: Inhibition of SE/CYP51 in Candida albicans ATCC SC5314 assessed as lanosterol level incubated for 48 hrs by LC/MS analysis; set-up: scale not given: the % may be the effect or the level left
Candida albicans [13] = test: Induction of apoptosis against Candida albicans ATCC SC5314 assessed as viable cells measured after 48 hrs by Annexin V-FITC/propidium iodide staining based flow cytometry (reference value: 80.78 %); format: functional
Candida albicans [14] = test: Induction of apoptosis against Candida albicans ATCC SC5314 assessed as late apoptotic cells measured after 48 hrs by Annexin V-FITC/propidium iodide staining based flow cytometry (reference value: 0.71 %); format: functional
Candida albicans [15] = test: Antifungal activity against Candida albicans strain 901 assessed as reduction in fungal growth incubated for 72 hrs by CLSI protocol based broth microdilution method; format: functional
Candida albicans [16] = test: Inhibition of SE/CYP51 in Candida albicans ATCC SC5314 assessed as unknown sterol level incubated for 48 hrs by LC/MS analysis; set-up: scale not given: the % may be the effect or the level left
[17] = Inhibition of SE in Candida albicans ATCC SC5314 measured after 30 mins by HPLC analysis

Lanosterol 14-alpha demethylase, sequence (P10613 whole entry): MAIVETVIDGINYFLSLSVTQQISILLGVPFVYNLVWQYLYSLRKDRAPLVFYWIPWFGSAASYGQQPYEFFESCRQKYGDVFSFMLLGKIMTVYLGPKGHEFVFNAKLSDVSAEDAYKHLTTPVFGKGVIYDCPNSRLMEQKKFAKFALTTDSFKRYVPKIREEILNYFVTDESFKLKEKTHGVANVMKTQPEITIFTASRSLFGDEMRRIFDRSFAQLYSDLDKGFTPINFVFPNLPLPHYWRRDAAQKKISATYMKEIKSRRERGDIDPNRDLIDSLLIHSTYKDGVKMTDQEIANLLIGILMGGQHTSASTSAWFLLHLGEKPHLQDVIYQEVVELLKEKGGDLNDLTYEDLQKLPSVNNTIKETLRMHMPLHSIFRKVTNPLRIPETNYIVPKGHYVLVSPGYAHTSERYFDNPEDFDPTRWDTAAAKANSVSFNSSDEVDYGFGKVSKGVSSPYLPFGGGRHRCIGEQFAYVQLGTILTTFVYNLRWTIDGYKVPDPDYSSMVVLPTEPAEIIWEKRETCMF

Which results are given for O=C(NC(Cn1cncn1)C(=O)c1ccccc1)c1cccc2ccccc12 (stereo not given)?
MIC50 (Candida albicans [1]): 0.5 µg/mL (≈ 1.35 µM); MIC50 (Aspergillus fumigatus): > 8 µg/mL; MIC50 (Candida tropicalis): 0.25 µg/mL (≈ 0.675 µM); MIC50 (Pichia kudriavzevii): 0.5 µg/mL (≈ 1.35 µM); MIC50 (Nakaseomyces glabratus): 0.5 µg/mL (≈ 1.35 µM)

For O=C(NC(Cn1cncn1)C(=O)c1ccccc1)c1ccc2ccccc2c1 (stereo not given), which MIC50 (Candida albicans [1]) is on record?
The MIC50 was 0.25 µg/mL (≈ 0.675 µM).

And the MIC50 (Aspergillus fumigatus)?
Its MIC50 is 4 µg/mL (≈ 10.8 µM).

What about the MIC50 (Candida tropicalis) of the same compound?
Its MIC50 is 0.25 µg/mL (≈ 0.675 µM).

What about the MIC50 (Pichia kudriavzevii) of the same compound?
The MIC50 was 1 µg/mL (≈ 2.7 µM).

And the MIC50 (Nakaseomyces glabratus)?
The MIC50 was 0.5 µg/mL (≈ 1.35 µM).

With O=C(NC(Cn1ccnc1)c1ccccc1)c1ccc2ccccc2c1 (stereo not given) as the compound, how does the MIC50 (Candida albicans [1]) read?
The MIC50 was 0.5 µg/mL (≈ 1.46 µM).

And the MIC50 (Aspergillus fumigatus)?
Its MIC50 is > 8 µg/mL.

And the MIC50 (Candida tropicalis)?
Its MIC50 is 0.5 µg/mL (≈ 1.46 µM).

And the MIC50 (Pichia kudriavzevii)?
Its MIC50 is 0.5 µg/mL (≈ 1.46 µM).

What about the MIC50 (Nakaseomyces glabratus) of the same compound?
The MIC50 was 0.25 µg/mL (≈ 0.732 µM).

For O=C(NC(Cn1ccnc1)c1ccccc1)c1cccc2ccccc12 (stereo not given), which MIC50 (Candida albicans [1]) is on record?
The MIC50 was 0.5 µg/mL (≈ 1.46 µM).

And the MIC50 (Aspergillus fumigatus)?
The MIC50 was > 8 µg/mL.

What about the MIC50 (Candida tropicalis) of the same compound?
The MIC50 was 0.5 µg/mL (≈ 1.46 µM).

What about the MIC50 (Pichia kudriavzevii) of the same compound?
Its MIC50 is 1 µg/mL (≈ 2.93 µM).

And the MIC50 (Nakaseomyces glabratus)?
Its MIC50 is 1 µg/mL (≈ 2.93 µM).

With OC(Cn1cncn1)(Cn1cncn1)c1ccc(F)cc1F [FLUCONAZOLE] as the compound, how does the MIC50 (Candida albicans [2]) read?
The MIC50 was > 8 µg/mL.

And the Activity (Candida albicans [3])?
Its Activity is 0.22%.

What about the MIC50 (Candida albicans [1]) of the same compound?
The MIC50 was 0.25 µg/mL (≈ 0.816 µM).

What about the MIC50 (Candida albicans [4]) of the same compound?
The MIC50 was > 8 µg/mL.

And the Activity (Candida albicans [5])?
Its Activity is 41.5%.

And the Activity (Candida albicans [6])?
Its Activity is 26.5%.

What about the MIC50 (Candida albicans [7]) of the same compound?
The MIC50 was > 8 µg/mL.

And the IC50 [8]?
Its IC50 is 134 nM.

And the Activity (Candida albicans [9])?
The Activity was 1.8%.

What about the MIC50 (Candida albicans [10]) of the same compound?
Its MIC50 is > 8 µg/mL.

What about the Activity (Candida albicans [11]) of the same compound?
The Activity was 24.61%.

And the Activity (Candida albicans [12])?
The Activity was 23.6%.

And the Activity (Candida albicans [13])?
Its Activity is 74.25%.

What about the MIC50 (Aspergillus fumigatus) of the same compound?
Its MIC50 is > 8 µg/mL.

And the MIC50 (Candida tropicalis)?
Its MIC50 is 0.5 µg/mL (≈ 1.63 µM).

What about the Activity (Candida albicans [14]) of the same compound?
Its Activity is 0.92%.

What about the MIC50 (Pichia kudriavzevii) of the same compound?
The MIC50 was 0.5 µg/mL (≈ 1.63 µM).

What about the MIC50 (Candida albicans [15]) of the same compound?
The MIC50 was > 8 µg/mL.

And the Activity (Candida albicans [16])?
The Activity was 6.6%.

And the MIC50 (Nakaseomyces glabratus)?
Its MIC50 is 0.5 µg/mL (≈ 1.63 µM).

For CN(C/C=C/c1ccccc1)Cc1cccc2ccccc12 [NAFTIFINE], which MIC50 (Candida albicans [2]) is on record?
The MIC50 was 4 µg/mL (≈ 13.9 µM).

What about the Activity (Candida albicans [3]) of the same compound?
Its Activity is 0.05%.

And the MIC50 (Candida albicans [1])?
Its MIC50 is 0.5 µg/mL (≈ 1.74 µM).

And the MIC50 (Candida albicans [4])?
Its MIC50 is > 8 µg/mL.

And the Activity (Candida albicans [5])?
The Activity was 5.2%.

What about the Activity (Candida albicans [6]) of the same compound?
Its Activity is 24.3%.

What about the MIC50 (Candida albicans [7]) of the same compound?
Its MIC50 is 4 µg/mL (≈ 13.9 µM).

And the Activity (Candida albicans [9])?
The Activity was 49.5%.

And the IC50 [17]?
The IC50 was 469 nM.

What about the MIC50 (Candida albicans [10]) of the same compound?
The MIC50 was 4 µg/mL (≈ 13.9 µM).

What about the Activity (Candida albicans [11]) of the same compound?
Its Activity is 60.92%.

What about the Activity (Candida albicans [12]) of the same compound?
Its Activity is 15.2%.

And the Activity (Candida albicans [13])?
The Activity was 38.54%.

And the MIC50 (Aspergillus fumigatus)?
The MIC50 was 4 µg/mL (≈ 13.9 µM).

And the MIC50 (Candida tropicalis)?
Its MIC50 is 0.5 µg/mL (≈ 1.74 µM).

And the Activity (Candida albicans [14])?
Its Activity is 0.49%.

What about the MIC50 (Pichia kudriavzevii) of the same compound?
Its MIC50 is 0.25 µg/mL (≈ 0.87 µM).

And the MIC50 (Candida albicans [15])?
The MIC50 was > 8 µg/mL.

And the Activity (Candida albicans [16])?
Its Activity is 5.8%.

What about the MIC50 (Nakaseomyces glabratus) of the same compound?
Its MIC50 is 0.5 µg/mL (≈ 1.74 µM).

For O=C(/C=C/c1ccc2ccccc2c1)NC(C(=O)Nc1ccncc1)c1ccccc1 (stereo not given), which MIC50 (Candida albicans [1]) is on record?
Its MIC50 is 0.5 µg/mL (≈ 1.23 µM).

What about the MIC50 (Aspergillus fumigatus) of the same compound?
Its MIC50 is 2 µg/mL (≈ 4.91 µM).

What about the MIC50 (Candida tropicalis) of the same compound?
The MIC50 was 0.5 µg/mL (≈ 1.23 µM).

What about the MIC50 (Pichia kudriavzevii) of the same compound?
The MIC50 was 0.5 µg/mL (≈ 1.23 µM).

What about the MIC50 (Nakaseomyces glabratus) of the same compound?
The MIC50 was 0.5 µg/mL (≈ 1.23 µM).
